Assay results as given in patent US20100260772A1, “METHODS FOR TREATING OR PREVENTING DISEASES ASSOCIATED WITH LOW BONE MASS” (THE TRUSTEES OF COLUMBIA UNIVERSITY IN THE CITY OF NEW YORK, priority 2007, published 2010).

Tests used:
[1] = system: Tph2 expression in brainstem; test: Leptin injection, Tph2 expression in brainstem; type: in vivo, mice
[2] = system: neuropeptides Y (Npy), a leptin target gene in arcuate neurons; test: Leptin injection, Npy expression (internal control); type: in vivo, mice; conditions: same leptin injection
Text: Next, we injected i.p […] of leptin and studied its effects on Tph2 expression 4 and […]. We also measured the brain concentration of serotonin in leptin knockouts (ob/ob mice). FIG. 5. […] FIG. 15. […] FIG. 5. […] Serotonin neurons in the brain stem have the ObRb receptors that bind to leptin, and they project to the hypothalamus.

[3] = system: cfos expression in brain stems; test: Leptin injection, cfos expression in brain stem; type: in vivo; conditions: following leptin injection
Text: We know that expression of the leptin receptor ObRb is not restricted to hypothalamic neurons and can be found in particular in serotonin-producing neurons of the brainstem that also express Tph2. […] This latter result means that leptin's first site of action in the brain is not, at least as far as controlling bone mass is concerned, the hypothalamus but rather the brainstem where serotonergic neurons are localized.

## leptin: endogenous polypeptide product of an ob gene
[1]; leptin injection (ICV, FIG. 7)
  Tph2 expression in brain stem (in words): decreases Tph2 expression
[1]; leptin injection i.c.v., FIG. 15
  decrease of Tph2 expression in brainstem: approximately 50%
[2]
  expression of neuropeptides Y (Npy): decreased
[3]
  cfos expression in brain stems: increased cfos expression
